Results published in patent US7217564B2, “Cytotoxic assay and new established cell line of sturgeon origin” (priority 2002, dated 2007).
pEC50: −log10 of the molar value. Where two headings read alike, the source gives them in different places.

Columns and labels:
[1] = system: STIP-1 cells; assay: cells; type: cell-based, Bester (Huso huso X Acipenser ruthenus); conditions: for pEC50: read-out: EC50 (toxicity concentration value which effects on 50% of the cells); for toxicity ranking to the STIP-1 cells: within the tested series (nine heavy metals / twelve phenols)
Description: (§1) The Alamar Blue assay is one of the bioassay methods being developed to measure the cellular metabolisms of the animal cells or the like. The Alamar Blue pigment is an oxidation-reduction pigment which should be incorporated in a cell for its reduction. The Alamar Blue pigment has the characteristics to be changed from an oxidation type (non-fluorescence/blue) to a reduction type (fluorescence/red) by the reduction reaction of the respiratory metabolism system done in mitochondria. If the cellular metabolism is normal, the reduction reaction proceeds in normal. On the other hand, if the cellular metabolism becomes abnormal, the oxidation type is remained as it is. Therefore, the abnormality of a cellular metabolism can be determined by measuring the change in color. Furthermore, the measurement of a cellular metabolism may be based on the fluorescence and the light absorption. In this case the fluorescence is monitored by an excitation wavelength of 530 nm to 560 nm and a detection wavelength of 590 nm, and the light absorption is monitored at wavelengths of 570 nm and 600 nm.
Cells were cultured in a 96-well microtiter plate in a CO2 incubator (air atmosphere) at 20° C. until it became confluent. The culture was performed using a culture medium prepared by adding 10% fetal bovine serum (FBS) (manufactured by Gibco Co., Ltd.), penicillin (10 unit/ml) and streptomycin (50 μg/ml) in a Leibovitz's L15 culture medium (manufactured by Gibco Co., Ltd.).
A 0.2M aqueous solution of a specimen (cadmium chloride, CdCl2.2H2O) was prepared and was then sterilized by passing through a filter of 0.2 μm in pore size to be preserved at 4° C. […] For a comparison example, the culture medium in the absence of the specimen was inoculated in a well. After 24 hours passed, an Alamar Blue pigment was added and an additional culture was continued for further 24 hours.
Subsequently, by using a microplate reader, the light absorbance of each well was measured using two wavelengths (570 nm and 600 nm). The inhibition value of a cellular metabolism with the cadmium aqueous solution was measured as a reduction rate of a well (a sample) inoculated with a cadmium aqueous solution to a well only containing the culture medium as a control. The calculation was performed using the following equation.
A=sample well (A570 nm−A600 nm)−blank well (A570 nm−A600 nm), and
B=control well (A570 nm−A600 nm)−blank well (A570 nm−A600 nm).
In addition, (A/B)×100 means a survival rate (%) of cells.
(B) Evaluations of toxicities of eight kinds of heavy metals except of cadmium to the STIP-1 cells were performed by the same way as described in the above (A).

[2] = system: STIP-3 cells; assay: Cytotoxic test using STIP-3 cells, Alamar Blue assay; type: cell-based, Bester (Huso huso X Acipenser ruthenus); conditions: 20° C., 24 hours with specimen, then Alamar Blue for further 24 hours, read-out: EC50 (toxicity concentration value which effects on 50% of the cells)
Description: as §1
Cells were cultured in a 96-well microtiter plate in a CO2 incubator (air atmosphere) at 20° C. until it became confluent. […]
Subsequently, by using a microplate reader, the light absorbance of each well was measured using two wavelengths (570 nm and 600 nm). […]

[3] = Huso huso, STIP-1 cells, 20° C., 24 hours with specimen, then Alamar Blue for further 24 hours
[4] = STIP-1 cells, 20° C., 24 hours with specimen, then Alamar Blue for further 24 hours

| Compound | pEC50 [1, 3] | pEC50 [1, 4] | also measured |
| --- | --- | --- | --- |
| Oc1ccc(Cl)c(Cl)c1 [3,4-dichlorophenol] | 4.52 |  |  |
| [Cl][Cd][Cl] [cadmium, cadmium chloride] |  | 4.05 | pEC50 [2]: 4.00 |
| Oc1cc(Cl)ccc1Cl [2,5-dichlorophenol] | 4.25 |  |  |
| [Cl][Cu][Cl] [CuCl2.2H2O] |  | 2.88 |  |
| Oc1ccc(Cl)cc1Cl [2,4-dichlorophenol] | 4.26 |  |  |
| Oc1cccc(Cl)c1Cl [2,3-dichlorophenol] | 4.10 |  |  |
| O.O.O.O.[Cl][Mn][Cl] [MnCl2.4H2O] |  |  | toxicity to the STIP-1 cells more than that to the culture cells of other fish origins [1]: about 10 times; pEC50 [1]: 3.40 |
| [Cl][Ni][Cl] [NiCl2.6H2O] |  |  | pEC50 [1]: < 2.00 |
| Oc1ccccc1 [Phenol] |  |  | pEC50 ([1]; Huso huso, 24 h): 2.07 |
| O=S(=O)([O-])[O-].[Zn+2] [ZnSO4.7H2O] |  | 3.40 |  |
| Tributyl tin |  | 6.05 | pEC50 ([1]; STIP-1 cells, 20° C., 24 hours with specimen, then Alamar Blue for further 24 hours, listed as tributyl tin): 6.05; toxicity at a concentration lower than other heavy metals ([1]; STIP-1 cells, compared with other heavy metals): about 100 times; toxicity ranking to the STIP-1 cells [1]: strongest toxicity |
| [Cl-].[Cl-].[Co+2] [CoCl2.6H2O] |  | 2.66 |  |
| Oc1c(Cl)c(Cl)c(Cl)c(Cl)c1Cl [Pentachlorophenol] | 4.05 |  |  |
| Oc1c(Cl)cccc1Cl [2,6-dichlorophenol] | 3.05 |  |  |
| HgCl2 |  |  | pEC50 [1]: 4.07 |
| O=[N+]([O-])[O-].O=[N+]([O-])[O-].[Pb+2] [Pb(NO3)2] |  | 2.48 |  |
| Oc1cc(Cl)c(Cl)cc1Cl [2,4,5-trichlorophenol] | 5.15 |  | toxicity ranking to the STIP-1 cells [1]: strongest toxicity |
| O=[N+]([O-])c1ccc(O)cc1 [p-nitrophenol] | 3.46 |  |  |
| Oc1ccc(Cl)cc1 [p-chlorophenol] | 3.10 |  |  |
| Oc1c(Cl)cc(Cl)c(Cl)c1Cl [2,3,4,6-tetrachlorophenol] | 5.05 |  |  |
